From ChEMBL document CHEMBL1133232, “The design and synthesis of thrombin inhibitors: analogues of MD805 containing non-polar surrogates for arginine at the P1 position” (Bioorg Med Chem Lett, 2000)

target: Plasminogen (Homo sapiens, UniProt P00747); test: Compound was evaluated for its inhibitory activity against plasmin
Sequence (P00747 97-580 limits assumed): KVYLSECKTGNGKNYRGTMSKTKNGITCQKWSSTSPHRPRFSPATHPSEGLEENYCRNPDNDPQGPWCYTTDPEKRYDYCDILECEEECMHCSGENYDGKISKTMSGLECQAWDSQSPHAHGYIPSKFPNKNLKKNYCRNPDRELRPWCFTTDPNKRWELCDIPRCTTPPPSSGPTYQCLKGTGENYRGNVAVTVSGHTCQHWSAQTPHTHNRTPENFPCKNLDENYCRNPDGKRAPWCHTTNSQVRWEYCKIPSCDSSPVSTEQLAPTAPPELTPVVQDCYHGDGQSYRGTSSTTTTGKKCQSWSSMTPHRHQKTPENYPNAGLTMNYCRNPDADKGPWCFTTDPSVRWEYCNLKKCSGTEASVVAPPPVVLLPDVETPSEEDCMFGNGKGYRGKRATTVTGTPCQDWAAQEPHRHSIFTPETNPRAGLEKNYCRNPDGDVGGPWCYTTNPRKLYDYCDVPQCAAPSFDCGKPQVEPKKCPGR
Sequence (P00747 581-810 limits assumed): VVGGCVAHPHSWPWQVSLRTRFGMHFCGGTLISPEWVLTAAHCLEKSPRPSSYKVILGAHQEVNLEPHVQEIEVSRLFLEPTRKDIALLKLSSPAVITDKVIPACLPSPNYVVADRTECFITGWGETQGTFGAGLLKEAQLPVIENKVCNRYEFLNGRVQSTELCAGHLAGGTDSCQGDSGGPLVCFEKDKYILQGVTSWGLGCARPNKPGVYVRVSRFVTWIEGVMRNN

Row | SMILES | Ki [µM]
1 | CC1(C)CNc2c(cccc2S(=O)(=O)N[C@@H](CSCCCN)C(=O)N2CCC(CCF)CC2)C1 | 4
2 | CC1CNc2c(cccc2S(=O)(=O)N[C@@H](Cc2nc3ccccc3s2)C(=O)N2CCC(CCO)CC2)C1 (stereo in doubt; 33) | 109
3 | CC1(C)CNc2c(cccc2S(=O)(=O)N[C@@H](CSCCCN)C(=O)N2CCC(CCO)CC2)C1 | 6.2
4 | CCC1CCN(C(=O)C(Cc2nc3ccccc3s2)NS(=O)(=O)c2cccc3c2NCC(C)(C)C3)CC1 (centres undefined) | 240

target: Kallikrein-1 (Homo sapiens, UniProt P06870); test: Compound was evaluated for its inhibitory activity against kallikrein
Sequence (P06870 whole entry): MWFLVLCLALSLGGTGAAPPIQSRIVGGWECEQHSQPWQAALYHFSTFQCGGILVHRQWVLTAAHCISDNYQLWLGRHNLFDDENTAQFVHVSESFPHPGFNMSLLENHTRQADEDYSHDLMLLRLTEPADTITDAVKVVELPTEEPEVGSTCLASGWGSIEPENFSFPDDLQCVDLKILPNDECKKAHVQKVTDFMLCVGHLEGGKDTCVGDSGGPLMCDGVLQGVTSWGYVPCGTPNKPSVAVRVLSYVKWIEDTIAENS

Row | SMILES | Ki [µM]
5 | CC1(C)CNc2c(cccc2S(=O)(=O)N[C@@H](CSCCCN)C(=O)N2CCC(CCF)CC2)C1 | > 87
6 | CC1CNc2c(cccc2S(=O)(=O)N[C@@H](Cc2nc3ccccc3s2)C(=O)N2CCC(CCO)CC2)C1 (stereo in doubt; 33) | > 45
7 | CC1(C)CNc2c(cccc2S(=O)(=O)N[C@@H](CSCCCN)C(=O)N2CCC(CCO)CC2)C1 | > 87
8 | CCC1CCN(C(=O)C(Cc2nc3ccccc3s2)NS(=O)(=O)c2cccc3c2NCC(C)(C)C3)CC1 (centres undefined) | 92

target: Serine protease 1 (Homo sapiens, UniProt P07477); test: Compound was evaluated for its inhibitory activity against Trypsin
Sequence (P07477 whole entry): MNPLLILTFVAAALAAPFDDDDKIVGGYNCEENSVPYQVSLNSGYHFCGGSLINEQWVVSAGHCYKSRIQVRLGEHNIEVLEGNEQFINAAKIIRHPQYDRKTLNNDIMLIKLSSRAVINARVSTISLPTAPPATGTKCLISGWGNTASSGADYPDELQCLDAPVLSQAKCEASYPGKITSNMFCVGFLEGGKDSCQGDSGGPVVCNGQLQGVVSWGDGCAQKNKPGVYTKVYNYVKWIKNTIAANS

Row | SMILES | Ki [µM]
9 | CC1(C)CNc2c(cccc2S(=O)(=O)N[C@@H](CSCCCN)C(=O)N2CCC(CCF)CC2)C1 | 1.32
10 | CC1CNc2c(cccc2S(=O)(=O)N[C@@H](Cc2nc3ccccc3s2)C(=O)N2CCC(CCO)CC2)C1 (stereo in doubt; 33) | 126
11 | CC1(C)CNc2c(cccc2S(=O)(=O)N[C@@H](CSCCCN)C(=O)N2CCC(CCO)CC2)C1 | 1.78
12 | CCC1CCN(C(=O)C(Cc2nc3ccccc3s2)NS(=O)(=O)c2cccc3c2NCC(C)(C)C3)CC1 (centres undefined) | 260

target: Coagulation factor X (Homo sapiens, UniProt P00742); test: Compound was evaluated for its inhibitory activity against Coagulation factor X
Sequence (P00742 41-179 limits assumed): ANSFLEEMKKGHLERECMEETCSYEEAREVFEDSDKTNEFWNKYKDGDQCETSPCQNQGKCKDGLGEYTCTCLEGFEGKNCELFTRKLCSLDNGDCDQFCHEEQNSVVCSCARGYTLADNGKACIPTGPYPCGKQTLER
Sequence (P00742 235-488 limits assumed): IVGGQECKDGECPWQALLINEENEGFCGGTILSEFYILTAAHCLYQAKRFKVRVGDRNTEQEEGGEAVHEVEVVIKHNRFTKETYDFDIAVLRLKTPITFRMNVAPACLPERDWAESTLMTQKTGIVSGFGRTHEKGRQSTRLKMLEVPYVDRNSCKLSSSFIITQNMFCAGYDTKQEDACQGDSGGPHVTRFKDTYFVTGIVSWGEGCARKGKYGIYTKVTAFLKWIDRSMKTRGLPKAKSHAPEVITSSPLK

Row | SMILES | Ki [µM]
13 | CC1(C)CNc2c(cccc2S(=O)(=O)N[C@@H](CSCCCN)C(=O)N2CCC(CCF)CC2)C1 | 87
14 | CC1CNc2c(cccc2S(=O)(=O)N[C@@H](Cc2nc3ccccc3s2)C(=O)N2CCC(CCO)CC2)C1 (stereo in doubt; 33) | 45
15 | CC1(C)CNc2c(cccc2S(=O)(=O)N[C@@H](CSCCCN)C(=O)N2CCC(CCO)CC2)C1 | 87
16 | CCC1CCN(C(=O)C(Cc2nc3ccccc3s2)NS(=O)(=O)c2cccc3c2NCC(C)(C)C3)CC1 (centres undefined) | 92

target: Prothrombin (Homo sapiens, UniProt P00734); test: Compound was evaluated for its inhibitory activity against Thrombin

Row | SMILES | Ki [µM]
17 | CC1(C)CNc2c(cccc2S(=O)(=O)NC(Cc2nc3cncnc3s2)C(=O)N2CCC(CCF)CC2)C1 (centres undefined) | 4.56
18 | CC1CNc2c(cccc2S(=O)(=O)N[C@@H](Cc2nc3ccccc3s2)C(=O)N2CCC(CCO)CC2)C1 (stereo in doubt; 23) | 0.118
19 | CC1CNc2c(cccc2S(=O)(=O)N[C@@H](Cc2c[nH]c3ccccc23)C(=O)N2CCC(CCO)CC2)C1 (some centres undefined) | 1.57
20 | CC1CNc2c(cccc2S(=O)(=O)N[C@@H](CCc2ccccc2)C(=O)N2CCC(CCO)CC2)C1 (some centres undefined) | 47.3
21 | CC1(C)CNc2c(cccc2S(=O)(=O)N[C@@H](CSCCCN)C(=O)N2CCC(CCF)CC2)C1 | 0.126
22 | CC1(C)CNc2c(cccc2S(=O)(=O)NC(Cc2nc3ccccc3s2)C(=O)N2CCC(CCO)CC2)C1 (centres undefined) | 0.0798
23 | CC1(C)CNc2c(cccc2S(=O)(=O)NC(Cc2nc3ccncc3s2)C(=O)N2CCC(CCF)CC2)C1 (centres undefined) | 0.81
24 | CC1CNc2c(cccc2S(=O)(=O)N[C@@H](Cc2nc3ccccc3s2)C(=O)N2CCC(CCO)CC2)C1 (stereo in doubt; 33) | 0.118
25 | CC1(C)CNc2c(cccc2S(=O)(=O)N[C@@H](CSCCCN)C(=O)N2CCC(CCO)CC2)C1 | 0.28
26 | CCC1CCN(C(=O)C(Cc2nc3ccccc3s2)NS(=O)(=O)c2cccc3c2NCC(C)(C)C3)CC1 (centres undefined) | 0.248
27 | Cc1csc(CC(NS(=O)(=O)c2cccc3c2NCC(C)(C)C3)C(=O)N2CCC(CCO)CC2)n1 (centres undefined) | 2.19

The remaining lines, values ahead:

Row | Ki [µM] | SMILES
28 | 3.1 | CC1CNc2c(cccc2S(=O)(=O)N[C@@H](Cc2nc3ccccc3o2)C(=O)N2CCC(CCO)CC2)C1 (some centres undefined)
29 | 19.6 | CC1(C)CNc2c(cccc2S(=O)(=O)N[C@@H](Cc2cccnc2)C(=O)N2CCC(CCO)CC2)C1
30 | 0.028 | CC1(C)CNc2c(cccc2S(=O)(=O)NC(Cc2nc3ccccc3s2)C(=O)N2CCC(CCF)CC2)C1 (stereo in doubt)
31 | 0.026 | CC1(C)CNc2c(cccc2S(=O)(=O)NC(Cc2nc3ccccc3s2)C(=O)N2CCC(CCF)CC2)C1 (stereo in doubt; 26)
32 | 3.28 | CC1(C)CNc2c(cccc2S(=O)(=O)NC(Cc2nc(-c3ccccc3)cs2)C(=O)N2CCC(CCO)CC2)C1 (centres undefined)
33 | 0.452 | CC(=O)OCCC1CCN(C(=O)C(Cc2nc3ccccc3[nH]2)NS(=O)(=O)c2cccc3c2NCC(C)(C)C3)CC1 (centres undefined)
34 | 0.76 | CC1(C)CNc2c(cccc2S(=O)(=O)NC(Cc2nc(CN)cs2)C(=O)N2CCC(CCO)CC2)C1 (centres undefined)
